Assay results from publication PMC5146677, “Structural Analysis of Glycine Sarcosine N-methyltransferase from Methanohalophilus portucalensis Reveals Mechanistic Insights into the Regulation of Methyltransferase Activity” (Scientific Reports, 2016).

What was measured:
[1] = biological target: T1, MpGSMT (Methanohalophilus portucalensis, UniProt F6KV61); assay: X-ray crystal structure, co-crystal and soaking; type: binding; details: active site; with SAH (5HIL) or SAM (5GWX); inactive conformation
T1 construct: gene gsmt
T1 sequence (F6KV61 1-263): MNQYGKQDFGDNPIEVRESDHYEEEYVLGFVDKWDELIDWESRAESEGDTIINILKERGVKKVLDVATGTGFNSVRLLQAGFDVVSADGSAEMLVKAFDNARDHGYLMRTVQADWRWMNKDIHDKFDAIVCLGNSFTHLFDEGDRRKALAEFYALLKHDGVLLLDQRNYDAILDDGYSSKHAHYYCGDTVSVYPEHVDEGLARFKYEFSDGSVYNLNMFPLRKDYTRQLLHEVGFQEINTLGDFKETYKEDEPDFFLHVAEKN
Excerpt: X-ray crystal structure, co-crystal and soaking on […] | crystal structure of […] in complex with the sarcosine substrate and the SAH cofactor

[2] = biological target: T2, MpGSMT (Methanohalophilus portucalensis, UniProt F6KV61, N100Q); assay: methyltransferase activity with betaine; type: biochemical; details: feedback inhibitor, allosteric; mutant has low activity
T2 construct: gene gsmt
T2 sequence (F6KV61 entry or part of it N100Q): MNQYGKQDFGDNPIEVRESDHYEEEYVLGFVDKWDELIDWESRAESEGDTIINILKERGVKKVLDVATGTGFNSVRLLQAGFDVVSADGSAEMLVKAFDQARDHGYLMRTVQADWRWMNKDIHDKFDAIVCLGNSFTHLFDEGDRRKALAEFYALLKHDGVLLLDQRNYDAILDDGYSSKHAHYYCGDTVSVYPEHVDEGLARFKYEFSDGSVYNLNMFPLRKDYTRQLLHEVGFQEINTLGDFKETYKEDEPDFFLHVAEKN

[3] = biological target: T1, MpGSMT; assay: X-ray crystal structure, soaking; type: binding
[4] = biological target: T3, MpGSMT (Methanohalophilus portucalensis, UniProt F6KV61, H104K); assay: methyltransferase activity with betaine; type: biochemical; details: feedback inhibitor, allosteric
T3 construct: gene gsmt
T3 sequence (F6KV61 entry or part of it H104K): as the sequence (F6KV61 entry or part of it N100Q) above, with Q100N, H104K counted along it

[5] = biological target: T1, MpGSMT; assay: X-ray crystal structure, co-crystal; type: binding; details: cofactor site; with sarcosine; 0.1 mM SAH

CNCC(=O)O [sarcosine]
X-ray crystal structure, co-crystal and soaking [1]: crystal structure of MpGSMT in complex with the sarcosine substrate and the SAH cofactor

C[N+](C)(C)CC(=O)[O-] [betaine]
betaine sensitivity [2]: MpGSMT^N100Q displayed a decreased response to betaine | X-ray crystal structure, soaking ([3]; allosteric feedback inhibitor site near Trp40, 1.7 M betaine soak): the observed MpGSMT structure indeed harbors a pocket for interacting directly with betaine | betaine sensitivity [4]: MpGSMT^H104K exhibited increased sensitivity to betaine

C[S+](CC[C@H](N)C(=O)O)C[C@H]1O[C@@H](n2cnc3c(N)ncnc32)[C@H](O)[C@@H]1O (stereo partly drawn) [SAM]
X-ray crystal structure, soaking ([3]; cofactor site, binary (5HIK) or with sarcosine (5GWX), 2 mM SAM): clear electron density maps corresponding to sarcosine and SAM in the active site

Nc1ncnc2c1ncn2[C@@H]1O[C@H](CSCC[C@H](N)C(=O)O)[C@@H](O)[C@H]1O [SAH]
X-ray crystal structure, co-crystal [5]: Clear electron density is visible for bound sarcosine and SAH
